Eight molecules from PubChem BioAssay (NCI) can be followed below.

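All cell lines were grown in 96-well plates and treated with compound for 48 hours. At the GI50, growth is halved. Definition used: TGI = concentration required for complete inhibition of growth.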

Among the test systems are MCF7 breast; MALME-3M melanoma; TK-10 renal; HCT-15 colon; BT-549 breast; A498 renal; ACHN renal; M14 melanoma; SF-268 CNS; MDA-MB-231 breast; EKVX NSCLC; COLO 205 colon; SF-295 CNS; DU-145 prostate; SR leukemia; SK-OV-3 ovarian; HL-60(TB) leukemia; HOP-62 NSCLC; CCRF-CEM leukemia.
What all share (test): DTP human tumour cell line panel, 48 h

For `C=CCN1C[C@H](C)N([C@H](c2ccc(C(=O)N(CC)CCO)cc2)c2cccc(OC)c2)C[C@H]1C`, the TGI in the assay on MCF7 breast, in the assay on MALME-3M melanoma, in the assay on TK-10 renal, in the assay on HCT-15 colon, with BT-549 breast and with A498 renal was greater than 100 µM each time. Moreover, the TGI in the assay on ACHN renal, with M14 melanoma, with SF-268 CNS, in the assay with MDA-MB-231 breast, in the assay with EKVX NSCLC and in the assay on COLO 205 colon was greater than 100 µM each time. In addition, the TGI in the assay on SF-295 CNS, with DU-145 prostate, with SR leukemia, with SK-OV-3 ovarian, in the assay with HL-60(TB) leukemia and with HOP-62 NSCLC was greater than 100 µM in each case.
As to `Cn1ccc(C(=O)NCCOCCNC(=O)c2ccn(C)c(=O)c2O)c(O)c1=O`, the TGI with MALME-3M melanoma, with TK-10 renal, in the assay with HCT-15 colon, in the assay on BT-549 breast, in the assay with A498 renal and in the assay on ACHN renal was greater than 100 µM throughout. Moreover, the TGI with SF-268 CNS, with MDA-MB-231 breast, with COLO 205 colon and with DU-145 prostate was greater than 100 µM throughout.
Regarding `c1cc(-c2ncc(-c3ccc4c(c3)CCCO4)o2)ccn1`, the TGI stood at 80.9 µM in the assay on MCF7 breast; 50.8 µM with MALME-3M melanoma; 89.8 µM with TK-10 renal; 69.7 µM in the assay on HCT-15 colon; 29.3 µM in the assay on CCRF-CEM leukemia; 53.3 µM with BT-549 breast. Also, the TGI in the assay with A498 renal was 59.6 µM; in the assay with ACHN renal, greater than 100 µM; in the assay with M14 melanoma, 94.5 µM; in the assay with SF-268 CNS it was 86.3 µM; in the assay on MDA-MB-231 breast, greater than 100 µM; with EKVX NSCLC it was greater than 100 µM. The TGI in the assay on COLO 205 colon was 91.5 µM; in the assay with SF-295 CNS it was greater than 100 µM; with DU-145 prostate, greater than 100 µM; in the assay on SK-OV-3 ovarian, 93.5 µM; in the assay with HL-60(TB) leukemia it was 16 µM; in the assay with HOP-62 NSCLC it was greater than 100 µM.
Regarding `CNC(=S)N/N=C(C)\C(=N/NC(=S)NC)c1ccccc1`, the TGI in the assay on MCF7 breast, in the assay with MALME-3M melanoma, in the assay on TK-10 renal, in the assay with HCT-15 colon, in the assay with BT-549 breast and in the assay on ACHN renal was greater than 100 µM in each case. Moreover, the TGI in the assay on M14 melanoma, in the assay with SF-268 CNS, in the assay with MDA-MB-231 breast, in the assay with EKVX NSCLC, in the assay with COLO 205 colon and in the assay on SF-295 CNS was greater than 100 µM in each case. The TGI in the assay on DU-145 prostate, with SK-OV-3 ovarian and in the assay on HOP-62 NSCLC was greater than 100 µM each time.
For `CC(=O)c1csc2c1C(=O)c1scc(C(C)=O)c1C2=O`, the TGI in the assay on MCF7 breast amounted to 3.31 µM; in the assay with MALME-3M melanoma it was 2.95 µM; with TK-10 renal, 5.82 µM; in the assay with HCT-15 colon, 3.2 µM; in the assay with CCRF-CEM leukemia it was 1.82 µM; in the assay on BT-549 breast, 3.18 µM. In addition, the TGI in the assay on A498 renal turned out to be 2.93 µM; in the assay with ACHN renal, 3.24 µM; in the assay on M14 melanoma it was 3.1 µM; in the assay with SF-268 CNS, 3.44 µM; in the assay with MDA-MB-231 breast, 1.43 µM; in the assay with EKVX NSCLC, 3.36 µM. For the same molecule, the TGI in the assay with COLO 205 colon was 3.63 µM; in the assay with SF-295 CNS, 3.09 µM; with DU-145 prostate, 3.34 µM; in the assay on SK-OV-3 ovarian, 4.64 µM; in the assay with HL-60(TB) leukemia it was 0.43 µM; in the assay with HOP-62 NSCLC it was 3.43 µM.
Consider `Cc1cccc2c1Oc1cc(Cl)ccc1C2NC(=O)CCN1CCOCC1` (stereo unspecified), for which the concentration for total growth inhibition (TGI) in the assay on MCF7 breast, in the assay on TK-10 renal, with HCT-15 colon, in the assay with CCRF-CEM leukemia, in the assay on BT-549 breast and in the assay with M14 melanoma was greater than 100 µM in each case. Moreover, the TGI in the assay on SF-268 CNS, in the assay on MDA-MB-231 breast, in the assay on EKVX NSCLC, in the assay on COLO 205 colon, in the assay on SF-295 CNS and in the assay with DU-145 prostate was greater than 100 µM throughout. Moreover, the TGI with SR leukemia, in the assay with SK-OV-3 ovarian, with HL-60(TB) leukemia and in the assay with HOP-62 NSCLC was greater than 100 µM each time.
`CC1(C)c2ccccc2C(=O)C12CCC(=O)CC2`: the TGI with MCF7 breast, in the assay on MALME-3M melanoma, with TK-10 renal, in the assay on HCT-15 colon, in the assay on CCRF-CEM leukemia and in the assay on BT-549 breast was greater than 100 µM each time. The TGI in the assay on ACHN renal, with M14 melanoma, in the assay on SF-268 CNS, in the assay with MDA-MB-231 breast, with EKVX NSCLC and in the assay with COLO 205 colon was greater than 100 µM throughout. Further, the TGI in the assay with SF-295 CNS, in the assay on DU-145 prostate, with SR leukemia, in the assay on SK-OV-3 ovarian, in the assay on HL-60(TB) leukemia and with HOP-62 NSCLC was greater than 100 µM in each case.
For the molecule `NS(=O)(=O)c1ccc(-n2c(-c3cccs3)nc3ccc(I)cc3c2=O)cc1`, the TGI in the assay with MCF7 breast was 65.4 µM; in the assay on MALME-3M melanoma it was 43.2 µM; in the assay with TK-10 renal it was 50.8 µM; with HCT-15 colon, 50.9 µM; in the assay with CCRF-CEM leukemia it was greater than 100 µM; in the assay with BT-549 breast it was 37.9 µM. For the same molecule, the TGI with ACHN renal was found to be 53.8 µM; with M14 melanoma it was 56 µM; in the assay with SF-268 CNS, 86.8 µM; in the assay on EKVX NSCLC it was 54.3 µM; with COLO 205 colon, 40.3 µM; in the assay on SF-295 CNS, 75.8 µM. Besides, the TGI in the assay on DU-145 prostate is 35.9 µM; in the assay with SR leukemia it was greater than 100 µM; with SK-OV-3 ovarian it was 53.7 µM; with HL-60(TB) leukemia, 64.4 µM; with HOP-62 NSCLC, 84.2 µM. Further, the GI50 in the assay with CCRF-CEM leukemia is 41.2 µM.
